Source: PubChem BioAssay (NCI)
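96-well plates; 48 h exposure; 5 concentrations. Endpoints by linear interpolation between flanking doses. Not reached: highest tested concentration assigned. GI50 is the concentration that inhibits growth by half. TGI marks complete inhibition of growth.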

Legend:
Test in all cases: NCI tumour cell line growth inhibition, 48 h
HCT-116 colon = system: HCT-116 colon
HOP-62 NSCLC = system: HOP-62 NSCLC
IGROV1 ovarian = system: IGROV1 ovarian
NCI-H226 lung = system: NCI-H226 lung
PC-3 prostate = system: PC-3 prostate
RPMI-8226 leukemia = system: RPMI-8226 leukemia
SF-268 CNS = system: SF-268 CNS
SK-MEL-28 melanoma = system: SK-MEL-28 melanoma
SK-OV-3 ovarian = system: SK-OV-3 ovarian
SN12C renal = system: SN12C renal

| SMILES | GI50 (HCT-116 colon) | TGI (HCT-116 colon) | GI50 (HOP-62 NSCLC) | TGI (HOP-62 NSCLC) | GI50 (IGROV1 ovarian) | TGI (IGROV1 ovarian) | GI50 (NCI-H226 lung) | TGI (NCI-H226 lung) | GI50 (PC-3 prostate) | TGI (PC-3 prostate) | GI50 (RPMI-8226 leukemia) | TGI (RPMI-8226 leukemia) | GI50 (SF-268 CNS) | TGI (SF-268 CNS) | GI50 (SK-MEL-28 melanoma) | TGI (SK-MEL-28 melanoma) | GI50 (SK-OV-3 ovarian) | TGI (SK-OV-3 ovarian) | GI50 (SN12C renal) | TGI (SN12C renal) |
| --- | --- | --- | --- | --- | --- | --- | --- | --- | --- | --- | --- | --- | --- | --- | --- | --- | --- | --- | --- | --- |
| O=C(N/N=C/c1ccc(Cl)cc1Cl)c1ccc2nc(-c3ccc(Cl)cc3)[nH]c2c1 | 1.45 µM | 3.51 µM | 1.8 µM | 4.1 µM | 1.5 µM | 2.98 µM | 1.77 µM | 3.48 µM | 1.55 µM | 3.3 µM | 1.16 µM | 3.51 µM | 2.08 µM | 4.35 µM | 1.58 µM | 3.04 µM | 1.79 µM | 4.31 µM | 1.96 µM | 4.26 µM |
| COc1cc(F)c(/C=C/c2cc(/C=C/c3cc(OC)c(OC)cc3F)n(-c3cc(F)cc(F)c3)n2)cc1OC | 3.13 µM | 13.1 µM | 4.01 µM | 17.1 µM | 4.73 µM | 21.1 µM | 14.8 µM | 43.6 µM | 2.66 µM | 8.17 µM | 3.75 µM | 41.4 µM | 3.15 µM | 13.6 µM | 2.36 µM | 5.75 µM | 19.6 µM | 41.9 µM | 2.04 µM | 4.42 µM |
| CCc1ccc2nccc(NCCCN(C)C)c2c1[N+](=O)[O-] | – | > 100 µM | – | > 100 µM | – | > 100 µM | – | > 100 µM | – | > 100 µM | – | > 100 µM | – | > 100 µM | – | > 100 µM | – | > 100 µM | – | > 100 µM |
| C[C@@H](COCCC(=O)N1CCN(c2ncc(C(F)(F)F)cn2)CC1)Nc1cn[nH]c(=O)c1C(F)(F)F | 40.3 µM | > 100 µM | 23.6 µM | > 100 µM | 42.2 µM | > 100 µM | > 56.2 µM | > 100 µM | 45.4 µM | > 100 µM | 31.8 µM | > 100 µM | 42.8 µM | > 100 µM | > 100 µM | > 100 µM | 53 µM | > 100 µM | 31.1 µM | > 100 µM |
| CCNNC(=O)[C@@H]1[C@H](c2cc(OC)c(OC)c(OC)c2)c2cc3c(cc2[C@H](O)[C@H]1CO)OCO3 | 0.354 µM | > 100 µM | 0.561 µM | > 100 µM | 0.59 µM | > 100 µM | 0.311 µM | – | 0.391 µM | > 100 µM | 0.407 µM | > 100 µM | 1.31 µM | > 100 µM | 0.599 µM | > 100 µM | 0.29 µM | 1.08 µM | 0.449 µM | > 100 µM |
| COc1cccc(CCC(=O)c2cc3c(N)c(C(=O)Nc4cccc(Cl)c4C)sc3nc2C)c1 | 0.448 µM | > 100 µM | 1.1 µM | > 100 µM | 0.628 µM | > 100 µM | 1.45 µM | 32.7 µM | 0.746 µM | > 100 µM | 0.819 µM | > 100 µM | 0.814 µM | > 100 µM | 0.981 µM | > 100 µM | 1.53 µM | > 75.6 µM | 0.667 µM | > 100 µM |
| Nc1cc(S(N)(=O)=O)ccc1SSc1ccc(S(N)(=O)=O)cc1N | – | > 100 µM | – | > 100 µM | – | > 100 µM | – | > 100 µM | – | > 100 µM | – | > 100 µM | – | > 100 µM | – | > 100 µM | – | > 100 µM | – | > 100 µM |
| CCOc1nccc2c1nc(-c1nonc1N)n2CC | > 25 µM | > 25 µM | > 25 µM | > 25 µM | > 25 µM | > 25 µM | > 23.1 µM | > 25 µM | > 25 µM | > 25 µM | > 25 µM | > 25 µM | > 25 µM | > 25 µM | > 25 µM | > 25 µM | > 25 µM | > 25 µM | > 25 µM | > 25 µM |
| Nc1c(C(=O)N/N=C/c2ccc(-c3cc(Cl)c(Cl)cc3Cl)o2)cnn1-c1ccnc2c(C(F)(F)F)cccc12 | 3.42 µM | > 100 µM | 5.24 µM | > 100 µM | 4.53 µM | > 100 µM | 5.62 µM | > 100 µM | 2.09 µM | 6.03 µM | 3.25 µM | > 100 µM | 5.2 µM | > 100 µM | 4.03 µM | > 100 µM | 4.81 µM | 73 µM | 4.42 µM | > 100 µM |
| O=c1oc2c3ccc4cnccc4c3[nH]c2c2ccccc12 | 1.58 µM | 2.99 µM | 3 µM | 8.3 µM | 12.7 µM | > 100 µM | 26.6 µM | 72.6 µM | 55.8 µM | > 100 µM | 7.94 µM | 33.4 µM | 13.1 µM | > 100 µM | 16.4 µM | 32 µM | > 100 µM | > 100 µM | 19.3 µM | 85.5 µM |
| NS(=O)(=O)c1ccc(-n2ncc3c(Nc4ccccc4)ncnc32)cc1 | 27.4 µM | > 100 µM | 16.7 µM | 48.5 µM | – | – | 46.4 µM | > 100 µM | 35.1 µM | > 100 µM | 15.3 µM | 76.6 µM | 43.1 µM | > 100 µM | 31.6 µM | > 100 µM | 99.8 µM | > 100 µM | > 100 µM | > 100 µM |
